Measurements: patent publication US20220267754A1, “VECTOR-BASED MUTAGENESIS SYSTEM” (priority 2015, published 2022)

What was measured:
[1] = system: E. coli; conditions: tabulated from Antimicrobial Index Knowledgebase; cited from earlier work
[2] = system: E. coli MG1655 ΔrecA::apra; format: cell-based

## CO/N=C(\C(=O)N[C@@H]1C(=O)N2C(C(=O)O)=C(COC(C)=O)CS[C@H]12)c1csc(N)n1 [cefotaxime]
[1]
  MIC: 0.016 to 0.25 µg/mL

## CN[C@@H]1[C@H](O)[C@H](NC)[C@H]2O[C@@]3(O)C(=O)C[C@@H](C)O[C@H]3O[C@@H]2[C@H]1O [spectinomycin]
[1]
  MIC: 8 to 64 µg/mL

## CO[C@H]1/C=C/O[C@@]2(C)Oc3c(C)c(O)c4c(O)c(c(/C=N/N5CCN(C)CC5)c(O)c4c3C2=O)NC(=O)/C(C)=C\C=C\[C@H](C)[C@H](O)[C@@H](C)[C@@H](O)[C@@H](C)[C@H](OC(C)=O)[C@@H]1C [rifampin]
[1]
  MIC: 0.5 to 16 µg/mL

## C[C@@H]1O[C@@H]1P(=O)(O)O [fosfomycin]
[1]
  MIC: 0.125 to 8 µg/mL

## CCOS(C)(=O)=O [EMS, ethyl methanesulfonate]
[2]
  fraction of cells resistant, CRB: 0.00E+00
  fraction of cells resistant, CTX: 1.67E−07
  fraction of cells resistant, FOS: 3.75E−04
  fraction of cells resistant, KAN: 8.17E−04
  fraction of cells resistant, MIX: 1.10E−04
  fraction of cells resistant, RIF: 6.68E−05
  fraction of cells resistant, SPC: 0.00E+00
  fraction of cells resistant, STR: 1.33E−06
  fraction of cells resistant, TET: 0.00E+00

## CCn1cc(C(=O)O)c(=O)c2cc(F)c(N3CCNCC3)cc21 [norfloxacin]
[1]
  MIC: 0.016 to 0.125 µg/mL

## Nc1ncc2[nH]cnc2n1 [2AP, 2-aminopurine]
[2]
  fraction of cells resistant, CRB: 1.17E−07
  fraction of cells resistant, CTX: 2.80E−06
  fraction of cells resistant, FOS: 4.83E−04
  fraction of cells resistant, KAN: 1.53E−03
  fraction of cells resistant, MIX: 2.03E−05
  fraction of cells resistant, RIF: 1.03E−05
  fraction of cells resistant, SPC: 2.50E−07
  fraction of cells resistant, STR: 3.17E−07
  fraction of cells resistant, TET: 0.00E+00

## [H]/N=C(/N)N[C@H]1[C@H](O)[C@@H](O)[C@H](O[C@@H]2O[C@@H](C)[C@](O)(C=O)[C@H]2O[C@@H]2O[C@@H](CO)[C@H](O)[C@@H](O)[C@@H]2NC)[C@@H](N/C(N)=N\[H])[C@@H]1O [streptomycin]
[1]
  MIC: 1 to 16 µg/mL

## CC1(C)S[C@@H]2[C@H](NC(=O)C(C(=O)O)c3ccccc3)C(=O)N2[C@H]1C(=O)O (some centres unmarked) [carbenicillin]
[1]
  MIC: 2 to 25 µg/mL

## Cc1ncc([N+](=O)[O-])n1CCO [metronidazole]
[1]
  MIC: 8 to 32 µg/mL
